Laboratory results published in ChEMBL document CHEMBL1133637, “Identification of MK-944a: a second clinical candidate from the hydroxylaminepentanamide isostere series of HIV protease inhibitors” (J Med Chem, 2000).
Values belong to the compound of their own block, whether it stands above or below them.

Assays:
[1] = Maximal plasma concentration in dogs at 10mg/kg oral dose 0.05M citric acid; conditions: dog
[2] = target: T1, Human immunodeficiency virus type 1 protease (Human immunodeficiency virus 1, UniProt Q72874)
[3] = target: Human immunodeficiency virus type 1 protease (Human immunodeficiency virus 1) (UniProt Q72874); assay: Inhibition of HIV-1 protease in vitro.
[4] = target: T1, Human immunodeficiency virus type 1 protease; assay: Concentration required for 50% inhibition of Protease
[5] = target: Human immunodeficiency virus type 1 protease (Human immunodeficiency virus 1) (UniProt Q72874); assay: Concentration required for 95% inhibition of Protease
in vivo = conditions: dog, po, 10 mg/kg
[6] = Partition coefficient (logP); conditions: octanol/water
[7] = target: Human immunodeficiency virus type 1 protease (Human immunodeficiency virus 1) (UniProt Q72874); assay: Concentration required for 95%Inhibition of Protease

Compound: CC(C)(C)NC(=O)[C@@H]1CN(Cc2cc3ccncc3o2)CCN1C[C@@H](O)C[C@@H](Cc1ccccc1)C(=O)NC1c2ccccc2C[C@H]1O (stereo not given in full)
Cmax [1]: 36500 nM
IC50 [2]: 0.39 nM
IC95 [3]: 12.5 nM

IC95 [3]: 50 nM
Compound: CC(C)(C)NC(=O)[C@@H]1CN(Cc2cccnc2)CCN1C[C@@H](O)C[C@@H](Cc1ccccc1)C(=O)N[C@H]1c2ccccc2C[C@H]1O

Compound: CC(C)(C)NC(=O)[C@@H]1CN(C(=O)c2cnc3occc3c2)CCN1C[C@@H](O)C[C@@H](Cc1ccccc1)C(=O)NC1c2ccccc2C[C@H]1O (stereo not given in full)
Cmax [1]: 130 nM
IC50 [4]: 1.7 nM
IC95 [5]: 100 nM

Compound: CC(C)(C)NC(=O)C1CN(Cc2ccc3occc3c2)CCN1CC(O)CC(Cc1ccccc1)C(=O)NC1c2ccccc2CC1O (stereo not given)
IC50 [2]: 1.7 nM
IC95 [3]: 100 nM

Compound: CC(C)(C)NC(=O)C1CN(Cc2cc3cccnc3s2)CCN1CC(O)CC(Cc1ccccc1)C(=O)NC1c2ccccc2CC1O (stereo not given)
IC50 [2]: 0.11 nM
IC95 [3]: 12.5 nM

Compound: Cc1c(CN2CCN(CC(O)CC(Cc3ccccc3)C(=O)NC3c4ccccc4CC3O)C(C(=O)NC(C)(C)C)C2)oc2ccccc12 (stereo not given)
Cmax [1]: 408 nM
IC50 [4]: 0.11 nM
IC95 [5]: 25 nM

Compound: CCOC(=O)c1cnc2oc(CN3CCN(CC(O)CC(Cc4ccccc4)C(=O)NC4c5ccccc5CC4O)C(C(=O)NC(C)(C)C)C3)cc2c1 (stereo not given)
IC50 [4]: 0.27 nM
IC95 [5]: 25 nM

IC95 [3]: 6 nM
Compound: CC(C)(C)NC(=O)[C@@H]1CN(Cc2cc3ccsc3s2)CCN1C[C@@H](O)C[C@@H](Cc1cccnc1)C(=O)N[C@H]1c2ccccc2C[C@H]1O

Compound: CC(C)(C)NC(=O)[C@@H]1CN(Cc2cnc3ccoc3c2)CCN1C[C@@H](O)C[C@@H](Cc1ccccc1)C(=O)NC1c2ccccc2C[C@H]1O (stereo not given in full)
Cmax [1]: 9720 nM
concentration at 8 h (in vivo): 1550 nM
IC50 [2]: 0.17 nM
IC95 [3]: 3 nM

Compound: CC(C)(C)NC(=O)[C@@H]1CN(Cc2ccc(Cl)nc2)CCN1C[C@@H](O)C[C@@H](Cc1ccccc1)C(=O)NC1c2ccccc2C[C@H]1O (stereo not given in full)
logP [6]: > 3.84
IC50 [2]: 0.49 nM
IC95 [3]: 12 nM

Compound: CC(C)(C)NC(=O)C1CN(Cc2cc3cc(CO)cnc3o2)CCN1CC(O)CC(Cc1ccccc1)C(=O)NC1c2ccccc2CC1O (stereo not given)
IC50 [4]: 0.18 nM
IC95 [5]: 62.5 nM

Compound: Cc1nn(C)c2ncc(CN3CCN(C[C@@H](O)C[C@@H](Cc4ccccc4)C(=O)NC4c5ccccc5C[C@H]4O)[C@H](C(=O)NC(C)(C)C)C3)cc12 (stereo not given in full)
Cmax [1]: 190 nM
IC50 [4]: 0.35 nM
IC95 [5]: 6 nM

Compound: Cc1ccc(CN2CCN(C[C@@H](O)C[C@@H](Cc3ccccc3)C(=O)NC3c4ccccc4C[C@H]3O)[C@H](C(=O)NC(C)(C)C)C2)cn1 (stereo not given in full)
logP [6]: 2.14
IC50 [2]: 0.62 nM
IC95 [3]: 100 nM

Compound: CCOc1ccc(CN2CCN(C[C@@H](O)C[C@@H](Cc3ccccc3)C(=O)NC3c4ccccc4C[C@H]3O)[C@H](C(=O)NC(C)(C)C)C2)cn1 (stereo not given in full)
Cmax [1]: 300 nM
logP [6]: 3.62
IC50 [2]: 3.4 nM
IC95 [3]: 100 nM

Compound: CC(C)(C)NC(=O)[C@@H]1CN(Cc2cnc3c(c2)CCO3)CCN1C[C@@H](O)C[C@@H](Cc1ccccc1)C(=O)NC1c2ccccc2C[C@H]1O (stereo not given in full)
Cmax [1]: 160 nM
IC50 [2]: 0.68 nM
IC95 [3]: 25 nM

Compound: CC(C)(C)NC(=O)[C@@H]1CN(Cc2cnc3occc3c2)CCN1C[C@@H](O)C[C@@H](Cc1ccccc1)C(=O)N[C@H]1c2ccccc2C[C@H]1O
Cmax [1]: 15000 nM
concentration at 8 h (in vivo): 9430 nM
IC50 [2]: 0.35 nM
IC95 [3]: 6 nM

Compound: CC(C)(C)NC(=O)C1CN(Cc2c[nH]c3ccccc23)CCN1CC(O)CC(Cc1ccccc1)C(=O)NC1c2ccccc2CC1O (stereo not given)
IC50 [2]: 1.7 nM
IC95 [3]: 50 nM

Compound: CC(C)(C)NC(=O)[C@@H]1CN(Cc2cc3ccccc3o2)CCN1C[C@@H](O)C[C@@H](Cc1ccccc1)C(=O)N[C@H]1c2ccccc2C[C@H]1O [L 756423]
Cmax [1]: 28300 nM
concentration at 8 h (in vivo): 800 nM
IC50 [2]: 0.18 nM
IC95 [3]: 25 nM

Compound: Cc1cc2oc(CN3CCN(C[C@@H](O)C[C@@H](Cc4ccccc4)C(=O)NC4c5ccccc5C[C@H]4O)[C@H](C(=O)NC(C)(C)C)C3)cc2cn1 (stereo not given in full)
IC50 [2]: 0.19 nM
IC95 [3]: 12 nM

Compound: CC(C)(C)NC(=O)[C@@H]1CN(Cc2cc3cnccc3o2)CCN1C[C@@H](O)C[C@@H](Cc1ccccc1)C(=O)NC1c2ccccc2C[C@H]1O (stereo not given in full)
IC50 [2]: 0.22 nM
IC95 [3]: 6 nM

Compound: CC(C)(C)NC(=O)C1CN(Cc2csc3ncccc23)CCN1CC(O)CC(Cc1ccccc1)C(=O)NC1c2ccccc2CC1O (stereo not given)
Cmax [1]: 230 nM
IC50 [4]: 0.2 nM
IC95 [7]: 6 nM

Compound: CSc1ncccc1CN1CCN(C[C@@H](O)C[C@@H](Cc2ccccc2)C(=O)NC2c3ccccc3C[C@H]2O)[C@H](C(=O)NC(C)(C)C)C1 (stereo not given in full)
IC50 [2]: 0.26 nM
IC95 [3]: 15.6 nM

Compound: CC(C)(C)NC(=O)[C@@H]1CN(Cc2cnc3occc3c2Cl)CCN1C[C@@H](O)C[C@@H](Cc1ccccc1)C(=O)NC1c2ccccc2C[C@H]1O (stereo not given in full)
Cmax [1]: 3940 nM
concentration at 8 h (in vivo): 2060 nM
IC50 [2]: 0.25 nM
IC95 [3]: 15.6 nM

Compound: Cc1nn(C)c2ncc(CN3CCN(C[C@@H](O)C[C@@H](Cc4ccccc4)C(=O)NC4c5ccccc5C[C@H]4O)[C@H](C(=O)NC(C)(C)C)C3)c(Cl)c12 (stereo not given in full)
IC50 [4]: 0.14 nM
IC95 [5]: 12.5 nM

Compound: CC(C)(C)NC(=O)[C@@H]1CN(Cc2nc3ccccc3[nH]2)CCN1C[C@@H](O)C[C@@H](Cc1ccccc1)C(=O)NC1c2ccccc2C[C@H]1O (stereo not given in full)
IC50 [2]: 0.47 nM
IC95 [3]: 200 nM

Compound: CC(C)(C)NC(=O)[C@@H]1CN(Cc2cnc3ccccc3c2)CCN1C[C@@H](O)C[C@@H](Cc1ccccc1)C(=O)NC1c2ccccc2C[C@H]1O (stereo not given in full)
IC50 [2]: 0.14 nM
IC95 [3]: 25 nM

Compound: CC(C)(C)NC(=O)C1CN(Cc2cc3cccnc3o2)CCN1CC(O)CC(Cc1ccccc1)C(=O)NC1c2ccccc2CC1O (stereo not given)
Cmax [1]: 1170 nM
IC50 [2]: 0.32 nM
IC95 [3]: 50 nM

Compound: COc1ncccc1CN1CCN(C[C@@H](O)C[C@@H](Cc2ccccc2)C(=O)NC2c3ccccc3C[C@H]2O)[C@H](C(=O)NC(C)(C)C)C1 (stereo not given in full)
Cmax [1]: 515 nM
logP [6]: > 3.84
IC50 [2]: 1.1 nM
IC95 [3]: 12 nM
